Test results from US6841561B1, “Dihydroorotate dehydrogenase inhibitors for the treatment of viral-mediated diseases” (priority 1999, dated 2005).
Several values for one entry are separate records, joined by “and”; a condition that tells them apart may be missing. Identical values can stand only once. Like-named read-outs stand apart in the source and are kept apart here.

How the values were obtained:
kunjin virus [1] = test: microbe, parasite or virus in culture; type: cell-based; details: West Nile virus
yellow fever virus [2] = test: microbe, parasite or virus in culture
[3] = system: vesicular stomatitis virus; test: microbe, parasite or virus in culture
dengue virus [4] = test: microbe, parasite or virus in culture; type: cell-based; details: Vero
yellow fever virus [5] = type: cell-based
hepatitis C = details: patients with chronic hepatitis C; in combination with interferon; cited from earlier work
yellow fever virus [6] = test: in vitro
kunjin virus [7] = type: cell-based
[8] = system: respiratory syncytial virus; test: microbe, parasite or virus in culture; type: cell-based; details: human respiratory syncytial virus, Vero, read-out: ED50 RSV VERO
dengue virus [9] = type: cell-based
VSV = type: cell-based, vesicular stomatitis virus
[10] = system: vesicular stomatitis virus; test: in vitro; details: human

Row | SMILES | EC50 (kunjin virus [1]; Huh-7, read-out: ED50) [nM] | EC50 (yellow fever virus [2]; Huh-7, read-out: ED50) [nM] | EC50 (yellow fever virus [2]; Vero, read-out: ED50) [nM] | EC50 ([3]; Huh-7, read-out: ED50) [nM] | EC50 (kunjin virus [1]; Huh-7, read-out: ED50 KUN HuH7) [nM] | EC50 (dengue virus [4]; read-out: ED50 DEN VERO) [nM] | EC50 (yellow fever virus [2]; Huh-7, read-out: ED50 YFV HuH7) [nM] | EC50 (yellow fever virus [2]; Vero, read-out: ED50 YFV VERO) [nM] | EC50 (kunjin virus [1]; Vero, read-out: ED50) [nM] | EC50 (dengue virus [4]; read-out: ED50) [nM] | further results
1 | O=C1C(O)=C(CC=C(Cl)Cl)C(=O)c2ccccc21 [Dichloroallyl lawsone, dichloroallyl lawsone] | 780 | 1100 | 900 | 490 |  |  |  |  |  |  | 
2 | O=C(O)c1cc(-c2ccc(-c3ccccc3)cc2)nc2ccc(OC(F)(F)F)cc12 [I2K5, 2-(4-biphenylyl)-6-trifluoromethoxy-quinoline-4-carboxylic acid] |  |  |  |  | 2000 | 800 | 1700 | 800 |  |  | Fold enhancement (yellow fever virus [5]): 3 fold
3 | O=C(O)c1cc(-c2ccc(Oc3ccccc3)cc2)nc2ccc(OC(F)(F)F)cc12 [I2K52, 2-(4-phenoxyphenyl)-6-trifluoromethoxy-quinoline-4-carboxylic acid] |  |  |  |  | 9600 |  | 11300 |  |  |  | 
4 | NC(=O)c1ncn([C@@H]2O[C@H](CO)[C@@H](O)[C@H]2O)n1 [Ribavirin] | 60000 | 34000 | 205000 | 250000 |  |  |  |  | 309000 | 320000 | combined treatment efficacy (hepatitis C): up to 40%; selectivity ratio (yellow fever virus [6]; human): 70; selectivity ratio (yellow fever virus [6]; monkey): 36; EC50 ([3]; MRC5, read-out: ED50): 120000 nM
5 | COc1cc(-c2ccc(Nc3ccccc3C(=O)O)c(OC)c2)ccc1Nc1ccccc1C(=O)O [Redoxal] | 520 | 630 | 250 | 630 |  |  |  |  | 390 | 390 | 
6 | Cc1c(-c2ccc(-c3ccccc3)cc2)nc2ccc(OC(F)(F)F)cc2c1C(=O)O [I2K55, 2-(4-biphenylyl)-3-methyl-6-trifluoromethoxy-quinoline-4-carboxylic acid] |  |  |  |  | 5800 | 11800 | 6100 | 11800 |  |  | 
7 | COc1c(-c2cc(C(=O)O)c3cc(OC(F)(F)F)ccc3n2)ccc(OCc2ccccc2)c1C [I2K51, 2-(4-benzyloxy-2-methoxy-3-methyl-phenyl)-6-trifluoromethoxy-quinoline-4-carboxylic acid] |  |  |  |  |  | 2600 |  | 1300 |  |  | 
8 | Cc1nc2c(n1-c1ccc(Br)cc1)C(=O)c1ccccc1C2=O [BNID, 1-(p-bromophenyl)-2-methyl-1H-naphth[2,3-d]imidazole-4,9-dione] | 1150 | 1150 | 1250 | 640 |  |  |  |  | 1050 | 1250 | Fold enhancement (yellow fever virus [5]): 10 fold and 5 fold; Fold enhancement (kunjin virus [7]): 6 fold
9 | O=C(O)c1cc(-c2ccc(C3CCCCC3)cc2)nc2ccc(OC(F)(F)F)cc12 [I2K46, 2-(4-cyclohexylphenyl)-6-trifluoromethoxy-quinoline-4-carboxylic acid] |  |  |  |  | 6300 |  | 5100 |  |  |  | 
10 | Cc1c(-c2ccc(-c3ccccc3F)cc2)nc2ccc(F)cc2c1C(=O)[O-].[Na+] [Brequinar, 6-fluoro-2-(2′-fluoro-1,1′-biphenyl-4-yl)-3-methyl-4′-quinolinecarboxylic acid sodium salt] | 30 | 50 | 20 | 14 | 40 | 40 | 30 | 20 | 20 | 20 | EC50 [8]: 20 nM; Fold enhancement (dengue virus [9]): 10 fold; Fold enhancement (kunjin virus [7]): 4.5 fold; Fold enhancement (VSV): 266 fold; selectivity ratio (yellow fever virus [6]; human): 60; selectivity ratio (yellow fever virus [6]; monkey): 2670; selectivity ratio [10]: 2100; EC50 ([3]; Huh-7, read-out: ED50 VSV HuH7): 80 nM
